In general, ED50 refers to the dose that gives a 50% effect, or the effect in half of the subjects. Broadly, the LD50 is the dose expected to kill half of the subjects tested. Read a high LD50 as a less toxic substance. In general, solubility refers to how much of the substance goes into solution per volume.

For data set [1], the system named is Streptococcus faecalis ATCC 10541. The data set is described as follows: Antibacterial activity, agar dilution method (MIC), Streptococcus faecalis. It counts as cell-based. The conditions noted are these: Enterococcus faecalis, ATCC10541, pH 7.0, read-out: Minimum inhibitory concentration (MIC), SF. The method, then:
(§1) Antibacterial activities of Compounds (I) against various microorganisms are shown in the following Table 5, in which the minimum inhibitory concentration MIC (μg/ml) was measured by the agar dilution method at a pH of 7.0.
(§2) In this table, the following abbreviations are used: SF-Streptococcus faecalis ATCC 10541; SA-Staphylococcus aureus ATCC6538P; BS-Bacillus subtilis 10707; PV-Proteus vulgaris ATCC6897; KP-Klebsiella pneumoniae ATCC10031.
On the technique in general: Agar dilution tests growth on a series of plates holding different concentrations.

In data set [2] the test system is Staphylococcus aureus ATCC6538P. The data set is described as follows: Antibacterial activity, agar dilution method (MIC), Staphylococcus aureus. It counts as cell-based. Conditions: pH 7.0, read-out: Minimum inhibitory concentration (MIC), SA. The method, then:
as §1, §2

Another data set concerns Bacillus subtilis 10707. As to the kind of experiment: Antibacterial activity, agar dilution method (MIC), Bacillus subtilis. In kind it is cell-based. Conditions: pH 7.0, read-out: Minimum inhibitory concentration (MIC), BS. How it is done:
as §1, §2

For data set [3], the system named is Proteus vulgaris ATCC6897. The data set is described as follows: Antibacterial activity, agar dilution method (MIC), Proteus vulgaris. It counts as cell-based. The conditions noted are these: pH 7.0, read-out: Minimum inhibitory concentration (MIC), PV. How it is done: as §1, §2
The subject of data set [4] is Klebsiella pneumoniae ATCC10031. As to the kind of experiment: Antibacterial activity, agar dilution method (MIC), Klebsiella pneumoniae. In kind it is cell-based. Conditions: pH 7.0, read-out: Minimum inhibitory concentration (MIC), KP. How it is done:
as §1, §2

Another data set relates to Sarcoma 180 solid tumour. The data set is described as follows: Antitumour activity against Sarcoma 180 solid tumour. Conditions: for ED50: Mus musculus, Sarcoma-180, iv, 168 h; for C.I. (LD50/ED50): chemotherapeutic index LD50/ED50, Sarcoma 180, ddy mice. It counts as in vivo, ddy male mouse. An excerpt:
(§3) Certain Compounds (I) and Sarcoma 180 solid tumour were used to determine, on each occasion, antitumour activity (ED50), acutee toxicity (LD50) and effect upon peripherical leucocytes (WBC4000), as shown Table 6.
5×10^6 cells of Sarcoma 180 solid tumour were abdominally implanted into a ddy mouce. 7 days after this, the cells were collected from the ascites fluid. The cells were washed once with physiological saline under sterile conditions and suspended in physiological saline to obtain a cell suspension containing 5×10^7 cells/ml, of which 0.1 ml was implanted into a ddy male mouce (body weight 20±2 g) under the skin of the right armpit. The test compound was dissolved in physiological saline or the same solution containing Tween 80. 24 hours after implantation of the tumour cells, 0.1-0.2 ml of the solution containing the test compound was administered to the tail vein of each animal in the test group consisting of 5 animals. 7 days after the implantation, the major axis (a) and minor axis (b) of the tumour were measured to calculate the volume of the tumour as ("a"×"b^2 ")/2. The antitumour effect was indicated by T/C which is the ratio of the tumour volume in the test animals to the corresponding volume of the control (untreated) animals.
ED50 denotes the dosage capable of decreasing the volume of Sarcoma 180 solid tumour to 50% of the corresponding volume of the control animals. T/C ratios and the dose were respectively plotted on the ordinate using an arithmetic scale and on the abscissa using a logarithmic scale, the relationship between the dosage and the T/C ratio being converted to a straight line by the least squares method. From the straight tropic line thus-obtained, the dosage corresponding to a T/C=0.5 viz. ED50 was determined.

The nature of another data set: Acute toxicity. The conditions noted are these: mouse, in vivo, ip; ddy mice, single abdominal administration, 14 days observation, Behrens-Korber's method.
Source text: as §3
The test compound was abdominally administered once to ddy mice, each group consisting of 5 animals.

A further data set concerns peripheral leucocytes. The data set is described as follows: Effect upon peripheral leucocytes (bone marrow toxicity). It counts as in vivo, male mice (ddy strain). The conditions noted are these: minimum dose decreasing peripheral leucocytes to 4000/mm^3; tumour-bearing ddy mice, intraperitoneal, blood 4 days later. How it is done: as §3
of peripheral leucocytes to 4000/mm^3.
Sarcoma 180 solid tumour cells (5×10^6) were subcutaneously implanted under the skin of the right armpit of each mouse (body weight 20±2 g) of a group consisting of 5 male mice (ddy strain). 24 hours after this, a test compound was intraperitoneally administered to each animal. 4 days later, blood (0.02 ml) was collected from the suborbital plexus vein of each tumour-carrying animal. The collected sample of blood was dispersed in 9.98 ml of Cellkit Seven solution. One drop of saponin solution was added to the sample to dissolve erythrocytes and then a microcell counter was used to measure the number of leucocytes. On graph paper, the number of leucocytes was plotted on the ordinate using an arithmetic scale, and the dosage was plotted on the abscissa using a logarithmic scale to show the relationship of the dosage to the number of peripherical leucocytes, from which the value of WBC4000 viz. a value capable of giving 4000 peripheral leucocytes per mm^3 (about half of the corresponding value in normal mice) was obtained.

A further data set can be described thus: Water-solubility. In kind it is physicochemical.
The mark [5] stands for this setting: dose giving T/C=0.5 tumour volume, single tail vein administration 24 hours after implantation, measured 7 days after implantation, read-out: ED50.

In brackets after ≈: the same amount, converted by molar mass. Like-named read-outs stand apart in the source and are kept apart here. A value given as a limit tells only on which side of the number the result lay.

`CO[C@@]12[C@H](COC(N)=O)C3=C(C(=O)C(C)=C(N=S(c4ccccc4)c4ccccc4)C3=O)N1C[C@@H]1N[C@@H]12` [Compound 1, 7-demethoxy-7-diphenylsulfiliminomitomycin A]: the MIC in [1] was 0.02 µg/mL (≈ 0.0386 µM); in [2], 0.01 µg/mL (≈ 0.0193 µM); with Bacillus subtilis 10707, under 0.005 µg/mL; in [3], 0.63 µg/mL (≈ 1.21 µM); in data set [4] it was 0.16 µg/mL (≈ 0.309 µM).

`CC1=C(N=S(c2ccccc2)c2ccccc2)C(=O)C2=C(C1=O)N1C[C@H]3[C@H](N3C)[C@]1(O)[C@H]2COC(N)=O` (stereo partly shown) [Compound 2]: the MIC in data set [1] was 0.78 µg/mL (≈ 1.5 µM); in [2] it was 0.78 µg/mL (≈ 1.5 µM); in the data set on Bacillus subtilis 10707 it was 0.2 µg/mL (≈ 0.386 µM); in [4], 25 µg/mL (≈ 48.2 µM). The 50% effective dose (ED50) in the data set with Sarcoma 180 solid tumour (setting [5]) amounted to 89.1 mg/kg. Besides, the “C.I. (LD50/ED50)” value with Sarcoma 180 solid tumour is on record as over 2.2. In the data set “Acute toxicity”, this compound showed a median lethal dose (LD50) at 336 h of over 200 mg/kg. In the data set with peripheral leucocytes, this compound had a WBC4000 of over 200 mg/kg.

In the case of `C=C1C2=C(C(=O)C(C)=C(N=S(c3ccccc3)c3ccccc3)C2=O)N2C[C@H]3[C@H](N3C)[C@]12O` (stereo partly shown) [Compound 3], the MIC with Bacillus subtilis 10707 was found to be 0.63 µg/mL (≈ 1.38 µM). The ED50 with Sarcoma 180 solid tumour (setting [5]) turned out to be 132 mg/kg. Besides, in the data set with Sarcoma 180 solid tumour, the “C.I. (LD50/ED50)” value is reported as over 1.5. Besides, the median lethal dose (LD50) at 336 h in the data set “Acute toxicity” is over 200 mg/kg. The compound also had a WBC4000 in the data set with peripheral leucocytes of over 200 mg/kg.

With `CO[C@@]12[C@H](COC(N)=O)C3=C(C(=O)C(C)=C(N=S(C)c4ccccc4)C3=O)N1C[C@@H]1N[C@@H]12` (stereo partly shown) [Compound 5, (E)-7-demethoxy-7-methylphenylsulfilimino mitomycin A], in the data set with Sarcoma 180 solid tumour (setting [5]), the 50% effective dose (ED50) is 2.7 mg/kg. Further, in the data set on Sarcoma 180 solid tumour, the “C.I. (LD50/ED50)” value turned out to be 5.6. The compound further returned an LD50 at 336 h in the data set “Acute toxicity” of 15 mg/kg. This compound had a WBC4000 in the data set with peripheral leucocytes of 4.1 mg/kg.

On to `CCS(CC)=NC1=C(C)C(=O)C2=C(C1=O)[C@@H](COC(N)=O)[C@@]1(OC)[C@H]3N[C@H]3CN21` [Compound 6], for which the MIC in [1] was 0.078 µg/mL (≈ 0.185 µM); in [2], 0.039 µg/mL (≈ 0.0923 µM); in the data set on Bacillus subtilis 10707, 0.02 µg/mL (≈ 0.0473 µM); in data set [3], 0.039 µg/mL (≈ 0.0923 µM); in data set [4], 0.039 µg/mL (≈ 0.0923 µM). Moreover, the 50% effective dose (ED50) in the data set with Sarcoma 180 solid tumour (setting [5]) worked out at 2.5 mg/kg. The “C.I. (LD50/ED50)” value in the data set on Sarcoma 180 solid tumour stood at 3.8. Moreover, the median lethal dose (LD50) at 336 h in “Acute toxicity” amounted to 9.4 mg/kg. Moreover, in the data set with peripheral leucocytes, the WBC4000 amounted to 5.6 mg/kg. Further, the solubility in “Water-solubility” is over 40 mg/mL.

Take `CCS(CC)=NC1=C(C)C(=O)C2=C(C1=O)[C@H](COC(N)=O)[C@@]1(O)[C@@H]3[C@H](CN21)N3C` (stereo partly shown) [Compound 7]: the MIC in data set [1] amounted to 20 µg/mL (≈ 47.3 µM); in data set [2], 10 µg/mL (≈ 23.7 µM); with Bacillus subtilis 10707, 5 µg/mL (≈ 11.8 µM); in [3], 20 µg/mL (≈ 47.3 µM); in data set [4], 10 µg/mL (≈ 23.7 µM).

With `CO[C@@]12[C@H](COC(N)=O)C3=C(C(=O)C(C)=C(N=P(c4ccccc4)(c4ccccc4)c4ccccc4)C3=O)N1C[C@@H]1N[C@@H]12` [Compound 9, 7-demethoxy-7-triphenylphosphiniminomitomycin A], the MIC turned out to be 13 µg/mL (≈ 21.9 µM) in data set [1]; 13 µg/mL (≈ 21.9 µM) in data set [2]; 3.1 µg/mL (≈ 5.21 µM) with Bacillus subtilis 10707; 25 µg/mL (≈ 42 µM) in data set [3]; 13 µg/mL (≈ 21.9 µM) in data set [4]. Also, the 50% effective dose (ED50) with Sarcoma 180 solid tumour came to 100 mg/kg. For the same compound, the “C.I. (LD50/ED50)” value with Sarcoma 180 solid tumour was at least 1.0. This compound also registered an LD50 at 336 h in the data set “Acute toxicity” of over 100 mg/kg. The WBC4000 with peripheral leucocytes is over 100 mg/kg.

Values taken from patent US4820824A, “Mitomaycin compounds” (Kyowa Hakko Kogyo Kabushiki Kaisha, priority 1986, dated 1989).
